Measurements: DBAASP
Converted amounts (≈) assume the structure as drawn.

Columns and labels:
Assay in all cases: ≥ marks a high value that may be exact or a test limit, other limits are often not marked, values filed in µg/mL are converted to µM
[1] = system: Bacillus subtilis KCTC 3068
[2] = system: Enterococcus faecalis VR
[3] = system: Enterococcus faecalis
[4] = system: Enterococcus faecium VR
[5] = system: Enterococcus faecium
[6] = system: Escherichia coli KCTC 1682
[7] = system: Pseudomonas aeruginosa KCTC 1637
[8] = system: Salmonella typhimurium KCTC 1926
[9] = system: Staphylococcus aureus KCTC 1621
[10] = system: Staphylococcus aureus MR
[11] = system: Staphylococcus epidermidis KCTC 1917
[12] = system: Bacillus subtilis ATCC 6633
[13] = system: Candida albicans ATCC 10231
[14] = system: Candida parapsilosis ATCC 22019
[15] = system: Cryptococcus neoformans
[16] = system: Escherichia coli ATCC 9637
[17] = system: Klebsiella pneumoniae ATCC 27736
[18] = system: Pseudomonas aeruginosa ATCC BAA-427
[19] = system: Sporothrix schenckii
[20] = system: Staphylococcus aureus ATCC 25923
[21] = system: Staphylococcus aureus ATCC 29213
[22] = system: Staphylococcus aureus ATCC 33592
[23] = system: Staphylococcus aureus ATCC 700698
[24] = system: Staphylococcus aureus ATCC 700699
[25] = system: Staphylococcus aureus ATCC BAA-44
[26] = system: Enterococcus faecalis ATCC 12953
[27] = system: Escherichia coli ATCC 8739
[28] = system: Escherichia coli KpC+001812446
[29] = system: Escherichia coli KpC+002101123
[30] = system: Klebsiella pneumoniae ATCC 13885
[31] = system: Klebsiella pneumoniae KpC+001825971
[32] = system: Proteus mirabilis ATCC 25933
[33] = system: Pseudomonas aeruginosa ATCC 15442
[34] = system: Salmonella enterica subsp. enterica serovar Typhimurium ATCC 14028
[35] = system: Staphylococcus aureus ATCC 33591
[36] = system: Streptococcus pyogenes ATCC 19615
[37] = system: Aspergillus niger ATCC 16404
[38] = system: Candida glabrata ATCC 15126
[39] = system: Enterococcus faecalis PCM 2673
[40] = system: Escherichia coli ATCC 23506
[41] = system: Escherichia coli ATCC 25922
[42] = system: Klebsiella pneumoniae ATCC 700603
[43] = system: Pseudomonas aeruginosa ATCC 9027
[44] = system: Staphylococcus aureus ATCC 9144
[45] = system: Streptococcus pneumoniae ATCC 49619
[46] = system: Escherichia coli C25

In the case of `CC[C@H](C)[C@H](NC(=O)[C@H](CC(C)C)NC(=O)[C@H](CS)NC(=O)[C@H](Cc1cnc[nH]1)NC(=O)[C@H](C)NC(=O)[C@H](C)N)C(=O)NCC(=O)N[C@@H](CCCN=C(N)N)C(=O)N[C@@H](CCCCN)C(N)=O` [AAHCLIGRK], the MIC [1] is reported as 7.5 µM, the MIC [2] is reported as 30 µM and the MIC [3] is reported as 30 µM. It also gave an MIC [4] of 7.5 µM, an MIC [5] of 30 µM and an MIC [6] of 15 µM. It also gave an MIC [7] of 15 µM, an MIC [8] of 15 µM and an MIC [9] of 15 µM. The MIC [10] was 15 µM and the MIC [11] was 7.5 µM.
`CC[C@H](C)[C@H](NC(=O)[C@H](C)NC(=O)CNC(=O)[C@H](CCCCN)NC(=O)[C@@H](NC(=O)[C@H](CC(C)C)NC(=O)[C@H](Cc1c[nH]c2ccccc12)NC(=O)CNC(=O)[C@H](Cc1ccccc1)NC(=O)[C@@H](N)Cc1ccccc1)[C@@H](C)CC)C(=O)N[C@@H](Cc1cnc[nH]1)C(=O)N[C@@H](C)C(=O)N1CCC[C@H]1C(=O)N[C@@H](CCCCN)C(=O)N[C@@H](C)C(=O)N[C@H](C(=O)N[C@@H](Cc1cnc[nH]1)C(=O)N1CCC[C@H]1C(=O)N[C@@H](CC(C)C)C(=O)N[C@H](C(=O)N[C@@H](Cc1cnc[nH]1)C(=O)N[C@@H](CCCN=C(N)N)C(=O)N[C@@H](CCCN=C(N)N)C(=O)N[C@@H](CCCN=C(N)N)C(=O)N[C@@H](Cc1cnc[nH]1)C(=O)O)[C@@H](C)CC)[C@@H](C)CC` [FFGWLIKGAIHAPKAIHPLIHRRRH] showed an MIC [12] of 3 µM (≈ 8.92 µg/mL), an MIC [13] of over 30 µM and an MIC [14] of 30 µM (≈ 89.2 µg/mL). For the same compound, the MIC [15] was 30 µM (≈ 89.2 µg/mL), the MIC [16] was 6.8 µM (≈ 20.2 µg/mL) and the MIC [17] was 27.2 µM (≈ 80.9 µg/mL). For the same compound, the MIC [18] was 13.6 µM (≈ 40.4 µg/mL), the MIC [19] was 30 µM (≈ 89.2 µg/mL) and the MIC [20] was 3 µM (≈ 8.92 µg/mL). For the same compound, the MIC [21] was 3 µM (≈ 8.92 µg/mL), the MIC [22] was 1.6 µM (≈ 4.76 µg/mL) and the MIC [23] was 3 µM (≈ 8.92 µg/mL). The MIC [24] was 3 µM (≈ 8.92 µg/mL) and the MIC [25] was 3 µM (≈ 8.92 µg/mL).
For `CC[C@H](C)[C@H](NC(=O)[C@H](CCCCN)NC(=O)CNC(=O)[C@H](CC(C)C)NC(=O)[C@H](Cc1ccccc1)NC(=O)[C@H](CCC(N)=O)NC(=O)[C@H](Cc1ccccc1)NC(=O)[C@@H](NC(=O)[C@@H](NC(=O)[C@@H](NC(=O)[C@@H]1CCCN1C(=O)[C@H](CC(C)C)NC(=O)[C@@H](N)Cc1ccccc1)[C@@H](C)CC)[C@@H](C)CC)C(C)C)C(=O)N[C@H](C(=O)N[C@@H](Cc1cnc[nH]1)C(=O)N[C@@H](Cc1cnc[nH]1)C(=O)N[C@H](C(=O)NCC(=O)N[C@@H](CC(N)=O)C(=O)N[C@@H](Cc1ccccc1)C(=O)N[C@H](C(=O)N[C@@H](Cc1cnc[nH]1)C(=O)NCC(=O)N[C@@H](Cc1ccccc1)C(=O)N[C@@H](CO)C(=O)N[C@@H](Cc1cnc[nH]1)C(=O)N[C@H](C(=O)N[C@@H](Cc1ccccc1)C(N)=O)C(C)C)C(C)C)C(C)C)[C@@H](C)CC` [FLPIIVFQFLGKIIHHVGNFVHGFSHVF], the MIC [12] was 1.5 µM (≈ 4.87 µg/mL), the MIC [26] was 1.5 µM (≈ 4.87 µg/mL) and the MIC [27] was 12 µM (≈ 39 µg/mL). The MIC [28] was 6 µM (≈ 19.5 µg/mL), the MIC [29] was 6 µM (≈ 19.5 µg/mL) and the MIC [30] was 3 µM (≈ 9.75 µg/mL). It also gave an MIC [31] of 3 µM (≈ 9.75 µg/mL), an MIC [32] of 6 µM (≈ 19.5 µg/mL) and an MIC [33] of 3 µM (≈ 9.75 µg/mL). The MIC [34] was 3 µM (≈ 9.75 µg/mL), the MIC [21] was 24 µM (≈ 78 µg/mL) and the MIC [35] was 6 µM (≈ 19.5 µg/mL). The MIC [36] was 6 µM (≈ 19.5 µg/mL).
`CC[C@H](C)[C@H](NC(=O)CNC(=O)[C@H](C)NC(=O)[C@@H](NC(=O)[C@H](CC(C)C)NC(=O)[C@H](CCCCN)NC(=O)[C@@H](NC(=O)[C@@H](N)CC(C)C)C(C)C)C(C)C)C(=O)N[C@@H](CCCCN)C(=O)N[C@@H](CCCCN)C(=O)N[C@@H](Cc1ccccc1)C(=O)N[C@@H](CC(C)C)C(=O)N[C@@H](CCCCN)C(=O)N[C@@H](Cc1c[nH]c2ccccc12)C(=O)N[C@@H](CCCCN)C(N)=O` [LVKLVAGIKKFLKWK] gave an MIC [37] of at least 145 µM, an MIC [13] of 145 µM (≈ 256 µg/mL) and an MIC [38] of at least 145 µM. For the same compound, the MIC [39] was at least 36.1 µM, the MIC [40] was at least 36.1 µM and the MIC [41] was 72.3 µM (≈ 128 µg/mL). The MIC [42] was 1.13 µM (≈ 2 µg/mL), the MIC [43] was 4.52 µM (≈ 8 µg/mL) and the MIC [20] was 72.3 µM (≈ 128 µg/mL). It also gave an MIC [44] of at least 36.1 µM and an MIC [45] of at least 72.3 µM.
`CC[C@H](C)[C@H](NC(=O)[C@H](Cc1ccc(O)cc1)NC(=O)[C@H](CCCN=C(N)N)NC(=O)[C@H](CCCN=C(N)N)NC(=O)[C@@H](N)CCCN=C(N)N)C(=O)NCC(=O)N[C@@H](CCCN=C(N)N)C(=O)N[C@@H](Cc1ccc(O)cc1)C(=O)N[C@H](C(=O)N[C@@H](CCCN=C(N)N)C(=O)N[C@@H](Cc1ccccc1)C(=O)N[C@@H](Cc1c[nH]c2ccccc12)C(=O)N[C@@H](CCCCN)C(N)=O)C(C)C` [RRRYIGRYVRFWK] was tested, and the MIC [46] was 2.1 µM (≈ 3.9 µg/mL) and the MIC [20] was 8.4 µM (≈ 15.6 µg/mL).
